In patent US20230181905A1, “Systems, Devices, and Methods for Enhancing the Neuroprotective Effects of Non-Invasive Gamma Stimulation with Pharmacological Agents” (Massachusetts Institute of Technology, priority 2021, published 2023):

What was measured:
[1] = system: excitatory neurons and interneurons of the visual cortex; assay: In vivo electrophysiology: single unit spiking and LFP phase locking; set-up: species or system mouse
Method: Next, principal component analyses was performed using action potential properties, isolated single units, and further separated them into excitatory and interneurons (FIG. 15A).
Single units were manually isolated by drawing cluster boundaries around the 3D projection of the recorded spikes, presented in SpikeSort3D software (Neuralynx).
The relationship between spike firing times and LFP gamma phase was calculated by mean resultant length using the Circular Statistics Toolbox. Briefly, spikes were sorted and LFP traces were filtered using the continuous wavelet transform returning the instantaneous signal phase and amplitudes. Spike times were linearly interpolated to determine phase, with peaks and troughs of gamma defined as 0 and ±pi radians respectively. The resulting phase values were binned to generate firing probabilities, for each 20-degree interval. […] All analyses were performed using MATLAB.
Spikes: Single units were manually isolated by drawing cluster boundaries around the 3D projection of the recorded spikes, presented in SpikeSort3D software (Neuralynx).
Single unit—LFP phase locking: The relationship between spike spiking times and LFP gamma phase was calculated by mean resultant length using the Circular Statistics Toolbox MATLAB File Exchange Function.
Briefly, spikes were sorted and LFP traces were filtered using the continuous wavelet transform returning the instantaneous signal phase and amplitudes. Spike times were linearly interpolated to determine phase, with peaks and troughs of gamma defined as 0 and ±pi radians respectively. The resulting phase values were binned to generate spiking probabilities, for each 20-degree interval. […] All analyses were performed using MATLAB. All in vivo electrophysiological analyses were conducted in MATLAB (Mathworks, #R2019a) utilizing signal processing and image processing toolboxes.

GFAP+ astrocytes = assay: GFAP+ astrocyte immunohistochemistry; assay type: in vivo, mouse; conditions: 5×FAD mice; Plx3397 diet 50 days vs control
Method: To study how CSF1R-sensitive microglia impact neural activity in the context of AD, an amyloidosis mouse model, the 5×FAD mice—which is a most commonly used mouse model for AD, was subject to a diet containing CSF1R inhibitor Plx3397 for 50 days (FIG. 21A). The CSF1R inhibitor Plx3397 (600 ppm) was employed, which was previously shown to effectively reduce microglia in vivo. Control mice were age-matched 5×FAD litters that received a regular diet. Electrophysiological recordings were performed using linear probes. Post-recording, the recording site in the visual cortex was verified by histology (FIG. 21), and microglia reduction was evaluated by assessing IBA1+ cell numbers.
Antibodies: IBA1 (Synaptic Systems, Cat #234 004, dilution-1:500; Wako Chemicals, Cat #019-19741, dilution-1:500), GFAP (Thermo Fisher Scientific, Cat #130300, dilution-1:500), MEF2C (Cell Signaling Technology, Cat #5030T), MAC2 (Cedarlane Labs, Cat #CL8942AP, dilution-1:500), vGAT (Synaptic Systems, Cat #131 013, dilution-1:500), vGLUT (Synaptic Systems, Cat #1135 302, dilution-1:500), NeuN (Synaptic Systems, Cat #266 004, dilution-1:1000), MHC2 (EMD Millipore, Cat #MABF33, dilution-1:500), C1q (Abcam, Cat #ab182451, dilution-1:500), synaptophysin (Sigma, Cat #S5768). […]

[2] = Plx3397 treated 5×FAD mice, baseline
[3] = Plx3397 treated 5×FAD mice, during acute 40 Hz entrainment

FC(F)(F)c1ccc(CNc2ccc(Cc3c[nH]c4ncc(Cl)cc34)cn2)cn1 [Plx3397, Pexidartinib]
overall mean spiking rate of E-neurons and I-neurons ([1]; 5×FAD mice, Plx3397 diet 50 days vs control): no differences | % of E-neurons and I-neurons phase-locked to 3-12 Hz theta oscillations ([1]; 5×FAD mice, Plx3397 vs control): reduction | percentage of E-neurons and I-neurons phase-locked to 30-50 Hz gamma oscillations ([1]; 5×FAD mice, Plx3397 vs control): less phase-locked | strength of phase-locked neurons to gamma oscillations ([1]; 5×FAD mice, Plx3397 vs control): without significant difference | strength of theta phase-locking of neurons ([1]; 5×FAD mice, Plx3397 vs control): increase | I-neurons showing 40 Hz entrainment ([1]; Plx3397 treated 5×FAD mice, acute 40 Hz entrainment, of the 47 I-neurons): 13 neurons | percentage of I-neurons phase-locked to gamma [1, 2]: 34.04% | percentage of gamma phase-locked E-neurons [1, 2]: 35.64% | percentage of I-neurons phase-locked to gamma [1, 3]: 65.95% | percentage of gamma phase-locked E-neurons [1, 3]: 46.53% | gamma phase-locking strength of E-neurons and I-neurons ([1]; Plx3397 treated 5×FAD mice, during acute 40 Hz entrainment vs baseline): enhanced | GFAP+ astrocytes (GFAP+ astrocytes): no difference
